Structures can show the parent of a compound that is named as a salt.
How the values were obtained:
σ1-receptor = molecular target: T1, σ1-receptor (Cavia porcellus, UniProt Q60492); test: Sigma-1 receptor binding, [3H](+)-pentazocine, brain membranes; parameters: species or system guinea pig; details: for inhibition at 0.1 µM: 10^−7 M
T1 construct: guinea pig brains were homogenized; from tissue; host or cells: guinea pig brain membranes
Description: Brain membrane preparation and binding assays for the σ1-receptor were performed as described (DeHaven-Hudkins et al., 1992) with some modifications. In brief, guinea pig brains were homogenized in 10 vols. (w/v) of Tris-HCl 50 mM 0.32 M sucrose, pH 7.4, with a Kinematica Polytron PT 3000 at 15000 r.p.m. for 30 s. The homogenate was centrifuged at 1000 g for […] at 4° C. and the supernatants collected and centrifuged again at 48000 g for 15 min at 4° C. The pellet was resuspended in 10 volumes of Tris-HCl buffer (50 mM, pH 7.4), incubated at 37° C. for 30 min, and centrifuged at 48000 g for 20 min at 4° C. Following this, the pellet was resuspended in fresh Tris-HCl buffer (50 mM, pH 7.4) and stored on ice until use.
Each assay tube contained 10 μL of [^3H](+)-pentazocine (final concentration of 0.5 nM), 900 μL of the tissue suspension to a final assay volume of 1 mL and a final tissue concentration of approximately 30 mg tissue net weight/mL. […] All tubes were incubated at 37° C. for 150 min before termination of the reaction by rapid filtration over Schleicher & Schuell GF 3362 glass fibre filters [previously soaked in a solution of 0.5% polyethylenimine for at least 1 h]. Filters were then washed with four times with 4 mL of cold Tris-HCl buffer (50 mM, pH 7.4). Following addition of scintillation cocktail, the samples were allowed to equilibrate overnight. The amount of bound radioactivity was determined by liquid scintillation spectrometry using a Wallac Winspectral 1414 liquid scintillation counter. Protein concentrations were determined by the method of Lowry et al. (1951).

T1 sequence (Q60492 whole entry): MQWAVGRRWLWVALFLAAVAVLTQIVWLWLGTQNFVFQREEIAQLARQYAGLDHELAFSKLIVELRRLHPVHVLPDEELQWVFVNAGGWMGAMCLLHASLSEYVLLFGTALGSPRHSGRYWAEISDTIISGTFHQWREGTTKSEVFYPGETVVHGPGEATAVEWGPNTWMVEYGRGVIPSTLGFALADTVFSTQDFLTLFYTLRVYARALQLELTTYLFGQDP

SMILES | melting point | inhibition at 0.1 µM (σ1-receptor) | Ki (σ1-receptor)
Cl.Clc1ccc(-n2ccc(OCCCCN3CCCCC3)n2)cc1Cl | 156 to 161 °C |  | 
Cl.Clc1ccc(-n2ccc(OCCCCN3CCCC3)n2)cc1Cl | 181 to 186 °C |  | 
CC(=O)c1c(OCCN2CCOCC2)nn(-c2ccc(Cl)c(Cl)c2)c1C.O=C(O)C(=O)O | 188 to 192 °C |  | 
Cl.Clc1ccc(-n2ccc(OCCCCN3CCOCC3)n2)cc1Cl | 165 to 169 °C |  | 
CC(=O)c1c(OCCN2CCCCC2)nn(-c2ccc(Cl)c(Cl)c2)c1C.O=C(O)C(=O)O | 158 to 161 °C |  | 
Cc1c(OCCCN2CCCC2)nn(-c2ccc(Cl)c(Cl)c2)c1C.Cl | 155 to 157 °C |  | 
COCCN(C)CCCCOc1ccn(-c2ccc(Cl)c(Cl)c2)n1.O=C(O)C(=O)O | 97 to 100 °C |  | 
C[C@@H]1CN(CCCCOc2ccn(-c3ccc(Cl)c(Cl)c3)n2)C[C@H](C)O1.Cl | 149 to 154 °C |  | 
Cc1c(OCCN2CCCC2)nn(-c2ccc(Cl)c(Cl)c2)c1C.Cl | 146 to 148 °C |  | 
CCN(CC)CCCCOc1ccn(-c2ccc(Cl)c(Cl)c2)n1.O=C(O)C(=O)O | 130 to 135 °C |  | 
Clc1ccc(-n2ccc(OCCCCN3CCSCC3)n2)cc1Cl.O=C(O)C(=O)O | 175 to 177 °C |  | 
CC(=O)c1c(OCCN2CCCC2)nn(-c2ccc(Cl)c(Cl)c2)c1C.O=C(O)C(=O)O | 159 to 162 °C |  | 
COc1ccc(-n2nc(OCCN3CCOCC3)cc2C)cc1.Cl | 169 to 173 °C |  | 
Cl.Clc1ccc(-n2nc(OCCn3ccnc3)cc2-c2ccccc2)cc1Cl | 147 to 155 °C |  | 
CCN(CC)CCOc1nn(-c2ccc(Cl)c(Cl)c2)c(C)c1C.Cl | 134 to 136 °C |  | 

Now from value to compound:

melting point | inhibition at 0.1 µM (σ1-receptor) | Ki (σ1-receptor) | SMILES
185 to 189 °C | 45.5% |  | Cl.Clc1ccc(-n2nc(OCCN3CCc4ccccc4C3)cc2-c2ccccc2)cc1Cl [Example 21, 2-{2-[1-(3,4-Dichlorophenyl)-5-phenyl-1H-pyrazol-3-yloxy]ethyl}-1,2,3,4-tetrahydroisoquinoline hydrochloride]
111 to 112 °C |  |  | Cc1cc(OCCn2ccnc2)nn1-c1ccc(Cl)c(Cl)c1 [Example 6, 1-{2-[1-(3,4-dichlorophenyl)-5-methyl-1H-pyrazol-3-yloxy]ethyl}-1H-imidazole]
137 to 147 °C | 47.3% |  | Cl.Clc1ccc(-n2nc(OCCN3CCCC3)cc2-c2ccccc2)cc1Cl [Example 17, 1-(3,4-Dichlorophenyl)-5-phenyl-3-[2-(pyrrolidin-1-yl)ethoxy]-1H-pyrazole hydrochloride]
119 to 122 °C | 108% |  | Cc1cc(OCCN2CCCCC2)nn1-c1ccc(Cl)c(Cl)c1 [Example 5, 1-{2-[1-(3,4-dichlorophenyl)-5-methyl-1H-pyrazol-3-yloxy]ethyl}piperidine]
197 to 207 °C | 46.5% |  | Cl.Clc1ccc(-n2nc(OCCN3CCOCC3)cc2-c2ccccc2)cc1Cl [Example 16, 4-{2-[1-(3,4-Dichlorophenyl)-5-phenyl-1H-pyrazol-3-yloxy]ethyl}morpholine hydrochloride]
> 280 °C (dec.) | 102% |  | Cc1cc(OCCN2CCCC2)nn1-c1ccc(Cl)c(Cl)c1.Cl [Example 3, 1-(3,4-Dichlorophenyl)-5-methyl-3-[2-(pyrrolidin-1-yl)ethoxy]-1H-pyrazole hydrochloride]
156 to 159 °C |  |  | Clc1ccc(-n2ccc(OCCCN3CCCC3)n2)cc1Cl (as salt: hydrochloride) [Example 41, 1-(3,4-dichlorophenyl)-3-[3-(pyrrolidin-1-yl)propoxy]-1H-pyrazole]
198 to 202 °C | 105% |  | Cc1cc(OCCN2CCCCC2)nn1-c1ccc2ccccc2c1.Cl [Example 63, 1-{2-[5-Methyl-1-(naphthalen-2-yl)-1H-pyrazol-3-yloxy]ethyl}piperidine hydrochloride]
152 to 156 °C | 104% | 12.4 nM | CC(C)c1cc(OCCCN2CCCC2)nn1-c1ccc(Cl)c(Cl)c1.Cl [Example 34, 1-(3,4-Dichlorophenyl)-5-isopropyl-3-[3-(pyrrolidin-1-yl)propoxy]-1H-pyrazole hydrochloride]
162 to 166 °C |  |  | Clc1ccc(-n2ccc(OCCN3CCOCC3)n2)cc1Cl (as salt: hydrochloride) [Example 37, 4-{2-[1-(3,4-dichlorophenyl)-1H-pyrazol-3-yloxy]ethyl}morpholine]
166 to 170 °C | 95.1% |  | Cc1cc(OCCCCN2CCC(c3ccccc3)CC2)nn1-c1ccc(Cl)c(Cl)c1.Cl [Example 28, 1-{4-[1-(3,4-dichlorophenyl)-5-methyl-1H-pyrazol-3-yloxy]butyl}-4-phenylpiperidine hydrochloride]
170 to 171 °C | 105% |  | Cc1cc(OCCN2CCCC2)nn1-c1ccc2ccccc2c1.Cl [Example 64, 5-Methyl-1-(naphthalen-2-yl)-3-[2-(pyrrolidin-1-yl)ethoxy]-1H-pyrazole hydrochloride]
181 to 185 °C | 94.2% | 3.9 nM | Cc1cc(OCCCCN2CCN(C)CC2)nn1-c1ccc(Cl)c(Cl)c1.Cl.Cl [Example 25, 1-{4-[1-(3,4-Dichlorophenyl)-5-methyl-1H-pyrazol-3-yloxy]butyl}-4-methylpiperazine dihydrochloride]
186 to 191 °C | 52.7% |  | CC(C)c1cc(OCCN2CCc3ccccc3C2)nn1-c1ccc(Cl)c(Cl)c1.Cl [Example 36, 2-{2-[1-(3,4-dichlorophenyl)-5-isopropyl-1H-pyrazol-3-yloxy]ethyl}-1,2,3,4-tetrahydroisoquinoline hydrochloride]
104 to 107 °C | 94.4% |  | Cc1cc(OCCN2CCC(n3cnc4cccnc43)CC2)nn1-c1ccc(Cl)c(Cl)c1 [Example 7, 3-{1-[2-(1-(3,4-Dichlorophenyl)-5-methyl-1H-pyrazol-3-yloxy)ethyl]piperidin-4-yl}-3H-imidazo[4,5-b]pyridine]
172 to 176 °C |  |  | Clc1ccc(-n2ccc(OCCN3CCCC3)n2)cc1Cl (as salt: hydrochloride) [Example 39, 1-(3,4-dichlorophenyl)-3-[2-(pyrrolidin-1-yl)ethoxy]-1H-pyrazole]
172 to 177 °C |  |  | Clc1ccc(-n2ccc(OCCN3CCCCC3)n2)cc1Cl (as salt: hydrochloride) [Example 40, 1-{2-[1-(3,4-dichlorophenyl)-1H-pyrazol-3-yloxy]ethyl}piperidine]
147 to 149 °C |  |  | CCN(CC)CCOc1nn(-c2ccc(Cl)c(Cl)c2)c(C)c1C(C)=O.O=C(O)C(=O)O
64 to 67 °C |  |  | Cc1c(OCCN2CCCCC2)nn(-c2ccc(Cl)c(Cl)c2)c1C [Example 48, 1-(2-(1-(3,4-Dichlorophenyl)-4,5-dimethyl-1H-pyrazol-3-yloxy)ethyl)piperidine]
 | 95.1% |  | CCN(CC)CCOc1cc(C)n(-c2ccc(Cl)c(Cl)c2)n1 [Example 2, 2-[1-(3,4-Dichlorophenyl)-5-methyl-1H-pyrazol-3-yloxy]-N,N-diethylethanamine hydrochloride]

From patent publication US8470867B2, “Sigma receptor inhibitors” (Laboratorios Del Dr. Esteve, S.A., priority 2004, dated 2013)
